Assay results as given in US4839350A, “Cephalosporin compounds and the production thereof” (Meiji Seika Kaisha, Ltd., priority 1984, dated 1989).
Where a name gives a salt, the structure may show the parent alone. Read-outs that look alike come from different tables or passages of the source.

Key:
Type in all cases: cell-based
Proteus rettgeri GN 624 = test: MIC by agar-dilution method, Proteus rettgeri GN 624
Text: (§1) The compounds of this invention are all novel compounds.

Proteus mirabilis GN 79 = test: MIC by agar-dilution method, Proteus mirabilis GN 79
Text: as §1

[1] = system: Salmonella typhimurium LT-2; test: MIC by agar-dilution method, Salmonella typhimurium LT-2
Text: as §1

[2] = system: Klebsiella pneumoniae PCI 602; test: MIC by agar-dilution method, Klebsiella pneumoniae PCI 602
Text: as §1

Proteus vulgaris GN 76 = test: MIC by agar-dilution method, Proteus vulgaris GN 76
Text: as §1

[3] = system: Pseudomonas aeruginosa MB 3833; test: MIC by agar-dilution method, Pseudomonas aeruginosa MB 3833
Text: as §1

[4] = system: Serratia marcescens No. 1; test: MIC by agar-dilution method, Serratia marcescens No. 1
Text: as §1

[5] = system: Escherichia coli NIHJ JC-2; test: MIC by agar-dilution method, Escherichia coli NIHJ JC-2
Text: as §1

[6] = system: Staphylococcus aureus 209P JC-1; test: MIC by agar-dilution method, Staphylococcus aureus 209P JC-1
Text: as §1

[7] = system: Staphylococcus aureus Smith; test: MIC by agar-dilution method, Staphylococcus aureus Smith
Text: as §1

[8] = Providencia rettgeri, GN624, read-out: MIC.
[9] = Salmonella enterica, read-out: MIC.

| SMILES | MIC (Proteus rettgeri GN 624; [8]) [µg/mL] | MIC (Proteus mirabilis GN 79; GN79, read-out: MIC.) [µg/mL] | MIC [1, 9] [µg/mL] | MIC ([2]; PCI602, read-out: MIC.) [µg/mL] | MIC (Proteus vulgaris GN 76; GN76, read-out: MIC.) [µg/mL] | MIC ([3]; MB3833, read-out: MIC.) [µg/mL] | MIC ([4]; read-out: MIC.) [µg/mL] | MIC ([5]; NIHJJC2, read-out: MIC.) [µg/mL] | MIC ([6]; read-out: MIC.) [µg/mL] | MIC ([7]; read-out: MIC.) [µg/mL] | MIC (Proteus rettgeri GN 624) [µg/mL] | MIC (Proteus mirabilis GN 79) [µg/mL] | MIC [1] [µg/mL] | MIC [2] [µg/mL] | MIC (Proteus vulgaris GN 76) [µg/mL] | MIC [3] [µg/mL] | MIC [4] [µg/mL] | MIC [5] [µg/mL] | MIC [6] [µg/mL] | MIC [7] [µg/mL] |
| --- | --- | --- | --- | --- | --- | --- | --- | --- | --- | --- | --- | --- | --- | --- | --- | --- | --- | --- | --- | --- |
| CO/N=C(\C(=O)NC1C(=O)N2C(C(=O)O)=C(C=Cc3ccccc3F)CSC12)c1csc(N)n1 (mixture of isomers) [Example 14, 7-[2-methoxyimino-2-(2-aminothiazol-4-yl)acetamido]-3-[2-(o-fluorophenyl)vinyl]-3-cephem-4-carboxylic acid trifluoroacetate (syn-isomer, mixed cis- and trans-isomers)] | 1.56 | 0.2 | 3.13 | 3.13 | 0.2 | > 50 | 1.56 | 3.13 | 0.2 | 0.39 |  |  |  |  |  |  |  |  |  |  |
| Cc1ncsc1C=CC1=C(C(=O)O)N2C(=O)C(NC(=O)C(=NOCC(=O)O)c3csc(N)n3)C2SC1.O=C(O)C(F)(F)F (single isomer, unassigned) [Example 16, 7-[2-carboxymethoxyimino-2-(2-aminothiazol-4-yl)acetamido]-3-[2-(4-methylthiazol-5yl)vinyl]-3-cephem-4-carboxylic acid trifluoroacetate (syn-isomer, trans-isomer)] |  |  |  |  |  |  |  |  |  |  | 1.56 | 0.05 | 0.10 | 0.20 | ≤ 0.025 | 12.5 | 0.05 | 0.39 | 3.13 | 3.13 |
| CO/N=C(\C(=O)NC1C(=O)N2C(C(=O)O)=C(/C=C\c3scnc3C)CSC12)c1csc(N)n1 (stereo not drawn) [Example 10, 7-[2-methoxyimino-2-(2-aminothiazol-4-yl)acetamido]-3-[2-(4-methylthiazol-5-yl)vinyl]-3-cephem-4-carboxylic acid trifluoroacetate (cyn-isomer, cis-isomer)] | 3.13 | 0.39 | 0.39 | 0.39 | 0.2 | 25 | 0.39 | 0.39 | 0.2 | 0.39 |  |  |  |  |  |  |  |  |  |  |
| CO/N=C(\C(=O)NC1C(=O)N2C(C(=O)O)=C(/C=C\c3ccccc3)CSC12)c1csc(N)n1 (stereo not drawn) [Example 11, 7-[2-methoxyimino-2-(2-aminothiazol-4-yl)acetamido]-3-(2-phenylvinyl)-3-cephem-4-carboxylic acid trifluoroacetate (cyn-isomer, cis-isomer)] | 3.13 | 0.78 | 6.25 | 3.13 | 0.78 | > 50 | 1.56 | 3.13 | 0.78 | 0.78 |  |  |  |  |  |  |  |  |  |  |
| CO/N=C(\C(=O)NC1C(=O)N2C(C(=O)O)=C(/C=C\c3ccco3)CSC12)c1csc(N)n1 (stereo not drawn) [Example 12, 7-[2-methoxyimino-2-(2-aminothiazol-4-yl)acetamido]-3-[2-(2-furyl)vinyl]-3-cephem-4-carboxylic acid sodium salt (cyn-isomer, cis-isomer)] | 3.13 | 0.78 | 1.56 | 1.56 | 0.39 | > 50 | 1.56 | 3.13 | 0.39 | 0.78 |  |  |  |  |  |  |  |  |  |  |
| CO/N=C(\C(=O)NC1C(=O)N2C(C(=O)O)=C(/C=C/c3ccc([N+](=O)[O-])o3)CSC12)c1csc(N)n1 (stereo not drawn) [Example 13, 7-[2-methoxyimino-2-(2-aminothiazol-4-yl)acetamido]-3-[2-(5-nitor-2-furyl)vinyl]-3-cephem-4-carboxylic acid sodium salt (syn-isomer, trans-isomer)] | 3.13 | 12.5 | 6.25 | 3.13 | 3.13 | > 50 | 6.25 | 6.25 | 6.25 | 6.25 |  |  |  |  |  |  |  |  |  |  |
| CO/N=C(\C(=O)NC1C(=O)N2C(C(=O)O)=C(C=Cc3sc[n+](C)c3C)CSC12)c1csc(N)n1 (stereo not drawn) [Example 15, 7-[2-methoxyimino-2-(2-aminothiazol-4-yl)acetamido]-3-[2-(3,4-dimethyl-5-thiazolio)vinyl]-3-cephem-4-carboxylic acid di-trifluoroacetate (syn-isomer)] | 0.39 | 0.78 | 0.1 | 0.1 | 0.39 | > 50 | 0.1 | 0.1 | 0.78 | 0.78 |  |  |  |  |  |  |  |  |  |  |
| CO/N=C(\C(=O)NC1C(=O)N2C(C(=O)O)=C(/C=C/c3scnc3C)CSC12)c1csc(N)n1 (stereo not drawn) [Example 18, 7-[2-methoxyimino-2-(2-aminothiazol-4-yl)acetamido-3-[2-(4-methylthiazol-5-yl)vinyl]-3cephem-4-carboxylic acid sodium salt (syn-isomer, trans-isomer)] | 0.39 |  | 0.78 | 0.39 | 0.1 | 50 | 0.39 | 0.78 | 0.39 | 0.39 |  |  |  |  |  |  |  |  |  |  |
| CO/N=C(\C(=O)NC1C(=O)N2C(C(=O)O)=C(/C=C\c3scnc3Cl)CSC12)c1csc(N)n1 (stereo not drawn) [Example 21, 7-[2-methoxyimino-2-(2-aminothiazol-4-yl)acetamido]-3-[2-(4-chlorothiazol-5-yl)vinyl]-3-cephem-4-carboxylic acid (syn-isomer, cis-isomer) sodium salt] | 1.56 | 0.2 | 0.2 | 0.1 | 0.1 | 12.5 | 0.2 | 0.2 | 0.1 | 0.2 |  |  |  |  |  |  |  |  |  |  |
| CO/N=C(\C(=O)NC1C(=O)N2C(C(=O)O)=C(/C=C/c3cnc(C)s3)CSC12)c1csc(N)n1 (stereo not drawn) [Example 30, 7-[2-methoxyimino-2-(2-aminothiazol-4-yl)acetamido]-3-[2-(2-methylthiazol-5-yl)vinyl]-3-cephem-4-carboxylic acid trifluoroacetate (syn-isomer, trans-isomer)] | 0.2 | 0.2 | 0.39 | 0.78 | 0.1 | > 50 | 0.2 | 0.78 | 0.78 | 1.56 |  |  |  |  |  |  |  |  |  |  |
| CO/N=C(\C(=O)NC1C(=O)N2C(C(=O)O)=C(/C=C\c3cnc(C)s3)CSC12)c1csc(N)n1 (stereo not drawn) [Example 31, 7-[2-methoxyimino-2-(2-aminothiazol-4-yl)acetamido]-3-[2-(2-methylthiazol-5-yl)vinyl]-3-cephem-4-carboxylic acid trifluoroacetate (syn-isomer, cis-isomer)] | 0.78 | 0.78 | 1.56 | 1.56 | 0.2 | > 50 | 0.78 | 1.56 | 0.78 | 1.56 |  |  |  |  |  |  |  |  |  |  |
| CO/N=C(\C(=O)NC1C(=O)N2C(C(=O)O)=C(/C=C\c3cscn3)CSC12)c1csc(N)n1 (stereo not drawn) [Example 32, 7-[2-methoxyimino-2-(2-aminothiazol-4-yl)acetamido]-3-[2-(thiazol-4-yl)vinyl]-3-cephem-4-carboxylic acid sodium salt (syn-isomer, cis-isomer)] | 6.25 |  | 0.78 | 1.56 | 0.1 | 100 | 0.78 | 1.56 | 0.39 | 0.78 |  |  |  |  |  |  |  |  |  |  |
| CO/N=C(\C(=O)NC1C(=O)N2C(C(=O)O)=C(/C=C\c3cncs3)CSC12)c1csc(N)n1 (stereo not drawn) [Example 33, 7-[2-methoxyimino-2-(2-aminothiazol-4-yl)acetamido]-3-[2-(thiazol-5-yl)vinyl]-3-cephem-4-carboxylic acid sodium salt (syn-isomer, cis-isomer)] | 0.78 | 0.39 | 0.39 | 0.2 | 0.1 | 25 | 0.39 | 0.39 | 0.39 | 0.39 |  |  |  |  |  |  |  |  |  |  |
